Results taken from US9597307B2 (priority 2012, dated 2017).
Read-outs that look alike come from different tables or passages of the source.

Tests used:
T2D signature = details: Wistar rats, high fructose diet, two weeks of daily injections 10 mg/kg; p<0.0001 using Fisher's exact test
Excerpt: In a first attempt to use gene network analyses for drug repositioning, a panel of 50 genes that are perturbed in the liver in T2D (‘T2D signature’) were identified. The genes were selected using differential expression analysis, causality tests, and a Bayesian network algorithm to identify genes that regulate the expression of several other disease genes (‘key regulators’).
A high fructose diet was used to induce insulin resistance on a group of Wistar rats.

[1] = cited from earlier work; for toxicity in studies / clinical testing: other indications (cancer and immune diseases), high doses
Wistar rats = details: high fructose diet, two weeks of daily injections 10 mg/kg, vs vehicle-treated control
Excerpt: For intraperitoneal pyruvate tolerance tests, a high fructose diet was used to induce insulin resistance on a group of Wistar rats. […] Intraperitoneal pyruvate tolerance tests are a procedure where pyruvate is converted to glucose in gluconeo-genesis. The test specifically reflects the insulin sensitivity of the liver.

H-4-II-E cells = details: without or with 10 or 100 nM insulin, FIG. 3
Experimental: H-4-II-E cells were seeded 110,000/well in 24-well plates in their usual medium (EMEM from ATCC, no 30-2003 with addition of 10% FBS and penicillin/streptomycin) at day 0 and incubated with 0.25 mM palmitate-BSA (ratio 10:3) for 16 h ON day 2-3. […] The cells were washed 3 times with glucose output medium (GOM) without glucogenic substrates (118 mM NaCl, 4.7 mM KCl, 1.2 mM MgSO4, 1.2 mM KH2P04, 1.2 mM CaC12, 20 mM NaHCO3, 25 mM HEPES pH 7.4 and 0.025% BSA). Then 500 ul of GOM (118 mM NaCl, 4.7 mM KCl, 1.2 mM MgSO4, 1.2 mM KH2PO4, 1.2 mM CaCl2, 20 mM NaCO3, 25 mM HEPES pH 7.4, 0.025% BSA, 20 mM lactate, 2 mM pyruvate and 10 mM glutamine) and GOM with the addition of 10 or 100 nM insulin was added, and the cells were allowed to incubate for 5 h. After that, most of the incubation medium (375 ul) was removed and used for glucose measurements. The cells were washed once with cold PBS and lyzed with 200 ul RIPA buffer for determination of protein concentration. […] Glucose concentration in the buffer samples was determined using the AmplexRed Glucose/Glucose Oxidase Assay Kit (LifeTechnologies no. A22189) following the manufacturer's instructions. Protein concentration in the cell lysates was measured using Pierce BCA Protein Assay Kit (ThermoScientific no. 23225).

C[S+]([O-])CCCCN=C=S (stereo not drawn) [sulforaphane]
reversal of genes in the T2D signature in liver (T2D signature): a major fraction of the genes in the T2D signature was reversed
serious adverse events in ongoing studies ([1]; ongoing studies for other indications): no serious adverse events have been reported
toxicity in studies / clinical testing [1]: low toxicity even at high doses
toxicity in studies / clinical testing ([1]; listed as Sulforaphane): very low toxicity even at high doses
intraperitoneal pyruvate tolerance (insulin sensitivity of the liver) (Wistar rats; FIG. 2): significant positive effect
intraperitoneal pyruvate tolerance (insulin sensitivity of the liver) (Wistar rats; FIG. 2, listed as Sulforaphane): showed significant differences from a vehicle-treated control group
hepatic glucose output, insulin-sensitive liver cells (H-4-II-E cells; 10 uM sulforaphane for 28 h): decreases hepatic glucose output
hepatic glucose output, insulin-resistant (induced by palmitate) liver cells (H-4-II-E cells; 0.25 mM palmitate-BSA 16 h, then 10 uM sulforaphane for 28 h): decreases hepatic glucose output
result of the experiments repeated in animals on high-fat diet (animals on high-fat diet): positive results
